Measured values published in patent publication US11472776B2, “Quinazolinones that inhibit the formation of tau oligomers and their method of use” (OLIGOMERIX INC., priority 2016, dated 2022).
Counter-ions that a name gives are not always drawn.

Assays:
[1] = tested on: insoluble tau aggregates; test: Reduction of insoluble tau aggregates in the brains of treated htau mice; type: in vivo
Protocol: (§1) Four groups of htau mice (n=25 per group) were treated from 2.5 to 6.5 months of age with 0, 10, 40 and 100 mg/kg of the compound of Example 20 milled into feed. The study was performed independently and blinded. The primary endpoint of the study was reduction of insoluble tau aggregates in the brains of the mice with statistical significance. […] Methods for biochemical analyses of tau used in this study have been previously described (Acker CM et al. Sensitive quantitative assays for tau and phospho-tau in transgenic mouse models. Neurobiol Aging. 2013. 34:338). The results in FIG. 1 show in vivo efficacy of the compound in reducing tau pathology. Levels of insoluble tau in the cortices of htau mice treated with the compound of Example 20 were determined using the pan-tau monoclonal antibody (mAb) DA31. These values were normalized to total tau in the lysates of the cortex of each mouse. Error bars indicate standard error of the mean. The P values of comparisons of the groups treated with 10, 40 or 100 mg/kg of the compound of Example 20 to the control group (white bar, 0 mg/kg) are 0.0503 (horizontal hatch bar, 10 mg/kg), 0.0154 (diagonal hatch bar, 40 mg/kg) and 0.0488 (vertical hatch bar, 100 mg/kg). * indicates P value <0.05.

[2] = Tolerability over the course of the htau mouse study; type: in vivo; settings: all doses (10, 40, 100 mg/kg in feed), htau mice
Protocol: as §1

[3] = target: T1, recombinant human tau 4R2N (Homo sapiens (Human), UniProt P10636); test: Confirmatory Assay (CONFA), SDS-PAGE quantification of tau monomer and oligomers; type: biochemical; settings: tau target 300 nM, 3 hours at room temperature, compound 0.098 uM-50 uM
Protocol: (§2) Bacterial recombinant human tau 4R2N (the largest isoform of tau in the central nervous system, 441 amino acids in length, Seq. ID 1) constructs with either 6×-His or StrepII N-terminal epitope tags were purified from bacterial lysate using denaturing conditions to prepare tau in its monomeric form.
CONFA Assay: Confirmatory Assay (CONFA) used as a secondary screen for confirming the mechanism of action of compounds identified as hits using the ALA assay. The assay is performed using a similar procedure as ALA except that it utilizes SDS-PAGE for visualization and quantification of tau monomer and aggregated species (dimer, trimer, tetramer, pentamer, etc.). Only a single construct of tau without epitope tags is necessary, but the assay can use the same target prepared for the ALA assay also.
For the CONFA assay, Tau target (300 nM) was prepared in buffer (Tris-HCl pH 7.4) and was incubated at room temperature for 3 hours with vehicle control (DMSO) and a dose range of a compound of the disclosure (0.098 uM-50 uM). […] AlphaView software (Protein Simple) was used for quantification of tau monomer and oligomers.

[4] = target: T1, recombinant human tau 4R2N; test: AlphaLisa Assay (ALA), primary screen for inhibition of tau oligomer formation; type: biochemical; settings: tau target 300 nM, 4 hours at room temperature, compound 0.098 uM-50 uM
Excerpt: as §2
ALA Assay: AlphaLisa Assay (ALA) was used as a primary screen for identifying compounds that inhibit tau oligomer formation. It is a bead based assay that only gives signal when the beads are in close proximity to each other. When the tau monomer (target) is incubated it forms higher order aggregates (dimer, trimer, tetramer, etc) so that when the donor and acceptor beads bind to the epitope tags of tau they are in close proximity and generate signal.
Tau target (equal mixture of each construct at 300 nM) was prepared in buffer (Tris-HCl pH 7.4) and was incubated in 96-well plates at room temperature for 4 hours with vehicle control (DMSO) and a dose range of a compound of the disclosure (0.098 uM-50 uM). […] The positive control (non-incubated target) & blank (no tau) were prepared and mixed with beads in bead buffer and the plate was read immediately using the EnVision plate reader (Perkin Elmer).

T1 sequence (P10636 other isoform, or with tags, fused parts or gaps): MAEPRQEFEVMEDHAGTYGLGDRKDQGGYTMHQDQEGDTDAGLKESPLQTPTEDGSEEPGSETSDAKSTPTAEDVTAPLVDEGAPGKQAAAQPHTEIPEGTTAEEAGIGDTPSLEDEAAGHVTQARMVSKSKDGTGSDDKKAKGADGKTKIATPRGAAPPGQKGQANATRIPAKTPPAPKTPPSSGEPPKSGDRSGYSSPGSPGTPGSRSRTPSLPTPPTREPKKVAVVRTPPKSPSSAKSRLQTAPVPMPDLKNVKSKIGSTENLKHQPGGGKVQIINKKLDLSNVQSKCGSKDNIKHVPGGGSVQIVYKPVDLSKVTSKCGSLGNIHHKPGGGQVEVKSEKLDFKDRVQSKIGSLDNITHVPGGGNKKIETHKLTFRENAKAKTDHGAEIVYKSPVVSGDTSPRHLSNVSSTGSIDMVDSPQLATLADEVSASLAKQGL

| Structure (SMILES) | reduction of insoluble tau, statistical significance ([1]; 40 mg/kg and 100 mg/kg doses, male htau mice) | in vivo activity: reduction of insoluble tau aggregates in the brains of treated htau mice ([1]; FIG. 1 legend) | reduction of insoluble tau ([1]; htau mice, 10, 40 and 100 mg/kg milled into feed, from 2.5 to 6.5 months of age) | tolerability over the course of the study [2] | toxic effects on weight, behavior or morbidity [2] | IC50 [3] | IC50 [4] |
| --- | --- | --- | --- | --- | --- | --- | --- |
| Cc1ccc(-n2c(-c3cccnc3)nc3ccccc3c2=O)cc1O [Ex. 20, 3-(4-Methyl-3-Hydroxyphenyl)-2-(Pyridin-3-yl)Quinazolin-4(3H)-One Hydrochloride] | achieved with statistical significance | achieved with statistical significance | reduced insoluble tau at all doses | well tolerated | did not cause toxic effects on weight, behavior or morbidity | – | – |
| CCc1ccc(-n2c(-c3cccnc3)nc3ccccc3c2=O)cc1O [Ex. 1, 3-(4-Ethyl-3-hydroxyphenyl)-2-(pyridin-3-yl)quinazolin-4(3H)-one] | – | – | – | – | – | 4.18 µM | 1.9 µM |
